This assay relates to T1, LipB12_A11.
T1 construct: EcoRV fosmid fragment subcloned in pJET1.2, E. coli T7 Express; no tag mentioned; heat step, ammonium sulphate, Superdex 75
Description: p-nitrophenol release at […] nm, Michaelis-Menten non-linear regression. The settings on record: 60 °C, pH 9; 0.002-2 mM substrate. Format: biochemical.

As usually defined, the Km is the concentration of substrate that gives half-maximal velocity.

Each structure is given as a SMILES string.

Consider `CCCCCCCCCCCC(=O)Oc1ccc([N+](=O)[O-])cc1` [pNP-laurate], for which the Km amounted to 17.3 ± 3.51 µM.

The values above are taken from publication PMC9145741, “Bioprospecting for Thermozymes and Characterization of a Novel Lipolytic Thermozyme Belonging to the SGNH/GDSL Family of Hydrolases” (International Journal of Molecular Sciences, 2022).
